Several values for one entry are separate records, joined by “and”; a condition that tells them apart may be missing. Equal entries are not always repeated. Where two headings read alike, the source gives them in different places.

Series [1] has as its target T1, adenosine A1 receptor (Homo sapiens (Human), UniProt P30542). The series is described as follows: Adenosine receptor activity assay (Table 1), A1 cAMP. The format is biochemical.
Series [2] deals with T2, adenosine A3 receptor (Homo sapiens (Human), UniProt P0DMS8). Briefly: Adenosine receptor activity assay (Table 1), A3 cAMP. The format is biochemical.
Series [3] deals with adenosine A2A receptor (Homo sapiens (Human), UniProt P29274). The series is described as follows: Adenosine receptor activity assay (Table 1), A2A activity. The format is biochemical. The conditions noted are these: read-out: Ave A2A cAMP IC50.
The target of series [4] is adenosine A2B receptor (Homo sapiens (Human), UniProt P29275). The series is described as follows: Adenosine receptor activity assay (Table 1), A2B activity. The format is biochemical. The conditions noted are these: for IC50: read-out: Ave A2B cAMP IC50.
Series [5] deals with T1, adenosine A1 receptor. The series is described as follows: A1 cAMP IC50 assay (Table 1). It is filed as biochemical.
In series [6] the target is T2, adenosine A3 receptor. Briefly: A3 cAMP IC50 assay (Table 1). It is filed as biochemical.
Series [7] in a line: Hepatocyte (Hep) intrinsic clearance, human. It is filed as in vitro ADME. The conditions noted are these: hepatocytes.
The nature of series [8]: Hepatocyte (Hep) intrinsic clearance, rat. It is filed as in vitro ADME. The conditions noted are these: hepatocytes.
The mark [9] stands for this setting: A2A activity to the A2B activity, A2A/A2B.
[10] abbreviates: A2A activity to A2B activity (A2A/A2B).

T1 sequence (P30542 whole entry): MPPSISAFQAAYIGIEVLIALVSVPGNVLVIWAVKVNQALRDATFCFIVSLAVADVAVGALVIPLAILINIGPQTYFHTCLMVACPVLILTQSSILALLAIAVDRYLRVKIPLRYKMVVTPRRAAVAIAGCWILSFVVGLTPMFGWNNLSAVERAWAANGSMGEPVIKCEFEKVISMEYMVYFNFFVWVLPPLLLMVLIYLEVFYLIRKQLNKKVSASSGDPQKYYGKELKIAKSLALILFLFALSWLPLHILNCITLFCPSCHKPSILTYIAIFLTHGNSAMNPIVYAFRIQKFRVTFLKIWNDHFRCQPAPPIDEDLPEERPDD
T2 sequence (P0DMS8 whole entry): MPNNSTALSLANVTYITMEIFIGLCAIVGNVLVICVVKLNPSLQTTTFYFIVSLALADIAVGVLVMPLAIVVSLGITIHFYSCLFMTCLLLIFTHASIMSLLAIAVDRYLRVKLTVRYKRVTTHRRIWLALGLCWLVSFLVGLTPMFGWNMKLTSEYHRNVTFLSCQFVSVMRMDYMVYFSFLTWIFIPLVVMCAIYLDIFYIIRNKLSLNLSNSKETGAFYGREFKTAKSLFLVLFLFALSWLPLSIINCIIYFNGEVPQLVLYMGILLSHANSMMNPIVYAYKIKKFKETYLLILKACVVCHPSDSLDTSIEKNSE
Sequence of adenosine A2B receptor (P29275 whole entry): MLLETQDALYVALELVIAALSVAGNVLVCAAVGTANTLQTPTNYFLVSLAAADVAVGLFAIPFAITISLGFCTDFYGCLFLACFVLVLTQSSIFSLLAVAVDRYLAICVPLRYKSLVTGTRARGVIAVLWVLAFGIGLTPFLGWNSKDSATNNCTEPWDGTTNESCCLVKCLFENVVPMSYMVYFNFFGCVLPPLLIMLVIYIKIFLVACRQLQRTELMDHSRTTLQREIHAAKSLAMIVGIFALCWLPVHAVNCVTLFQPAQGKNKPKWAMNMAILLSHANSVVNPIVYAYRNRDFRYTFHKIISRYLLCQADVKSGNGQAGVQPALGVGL
Sequence of adenosine A2A receptor (P29274 whole entry): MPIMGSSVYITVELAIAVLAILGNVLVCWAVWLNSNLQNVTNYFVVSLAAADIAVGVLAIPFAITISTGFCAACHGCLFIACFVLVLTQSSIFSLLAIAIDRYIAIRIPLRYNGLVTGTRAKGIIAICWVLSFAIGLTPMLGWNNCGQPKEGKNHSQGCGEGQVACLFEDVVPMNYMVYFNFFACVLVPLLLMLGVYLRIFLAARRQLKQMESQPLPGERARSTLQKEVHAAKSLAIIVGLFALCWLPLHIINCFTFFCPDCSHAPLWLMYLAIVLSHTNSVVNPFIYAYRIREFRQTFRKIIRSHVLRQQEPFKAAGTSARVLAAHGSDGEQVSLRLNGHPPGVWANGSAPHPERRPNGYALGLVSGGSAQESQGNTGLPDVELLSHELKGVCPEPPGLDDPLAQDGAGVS

Take `C[C@H](Nc1nc(C(=O)N2CC(NC(=O)c3ccc(C(F)(F)F)o3)C2)c2sccc2n1)c1cncc(F)c1` [Example Z629, (S)—N-(1-(2-((1-(5-Fluoropyridin-3-yl)ethyl)amino)thieno[3,2-d]pyrimidine-4-carbonyl)azetidin-3-yl)-5-(trifluoromethyl)furan-2-carboxamide]: the IC50 in series [1] is over 500 nM; in series [2] it was over 500 nM; in series [3] (cAMP), 10 to 50 nM; in series [4] (cAMP), 10 to 50 nM. Moreover, in series [4] (setting [9]), the Ratio is listed as 2.40.
For `CCC(CC)NC(=O)NC1CN(C(=O)c2nc(N[C@@H](C)c3cncc(F)c3)nc3ccsc23)C1` [Example Z630, (S)-1-(1-(2-((1-(5-Fluoropyridin-3-yl)ethyl)amino)thieno[3,2-d]pyrimidine-4-carbonyl)azetidin-3-yl)-3-(pentan-3-yl)urea], the IC50 in series [1] is over 500 nM; in series [2], 10 to 50 nM; in series [3] (cAMP), under 10 nM; in series [4] (cAMP), 10 to 50 nM. Further, the Ratio in series [4] (setting [9]) is on record as 0.33.
With `C[C@H](Nc1nc(C(=O)N2CC(NC(=O)C3CC(C)(C)C3)C2)c2sccc2n1)c1cncc(F)c1` [Example Z638, (S)—N-(1-(2-((1-(5-Fluoropyridin-3-yl)ethyl)amino)thieno[3,2-d]pyrimidine-4-carbonyl)azetidin-3-yl)-3,3-dimethylcyclobutane-1-carboxamide], the IC50 in series [1] is over 500 nM; in series [2] it was 50 to 100 nM; in series [3] (cAMP), under 10 nM; in series [4] (cAMP), 10 to 50 nM. Besides, the Ratio in series [4] (setting [9]) was 0.52.
Consider `C[C@H](Nc1nc(C(=O)N2CC(NC(=O)NC(C)(C)C)C2)c2sccc2n1)c1cncc(F)c1` [Example Z611, (S)-1-(tert-Butyl)-3-(1-(2-((1-(5-fluoropyridin-3-yl)ethyl)amino)thieno[3,2-d]pyrimidine-4-carbonyl)azetidin-3-yl)urea], for which the IC50 in series [1] is over 500 nM; in series [2] it was 100 to 500 nM; in series [3] (cAMP), under 10 nM; in series [4] (cAMP), under 10 nM. Further, the Ratio in series [4] (setting [9]) is 0.80.
On to `Cc1cc2nc(N[C@@H](C)c3cncc(F)c3)nc(C(=O)N3CC(NC(=O)c4ccc(C(F)(F)F)o4)C3)c2s1` [Example Z632, (S)—N-(1-(2-((1-(5-Fluoropyridin-3-yl)ethyl)amino)-6-methylthieno[3,2-d]pyrimidine-4-carbonyl)azetidin-3-yl)-5-(trifluoromethyl)furan-2-carboxamide], for which the IC50 was over 500 nM in series [1], 100 to 500 nM in series [2], under 10 nM in series [3] (cAMP) and under 10 nM in series [4] (cAMP). Besides, the Ratio in series [4] (setting [9]) is on record as 1.12.
`C[C@H](Nc1nc(C(=O)N2CC(NC(=O)OC3CCCC3)C2)c2sccc2n1)c1cncc(F)c1` [Example Z618, Cyclopentyl (S)-(1-(2-((1-(5-fluoropyridin-3-yl)ethyl)amino)thieno[3,2-d]pyrimidine-4-carbonyl)azetidin-3-yl)carbamate]: the IC50 in series [1] was over 500 nM; in series [2], 100 to 500 nM; in series [3] (cAMP), 10 to 50 nM; in series [4] (cAMP) it was 10 to 50 nM. Also, in series [4] (setting [9]), the Ratio amounted to 1.31.
For the compound “(S)—N-(1-(2-((1-(5-Fluoropyridin-3-yl)ethyl)amino)-7-methylthieno[3,2-d]pyrimidine-4-carbonyl)azetidin-3-yl)pivalamide [Example Z624]”, the IC50 in series [1] is over 500 nM; in series [2], 100 to 500 nM; in series [3] (cAMP) it was under 10 nM; in series [4] (cAMP), 10 to 50 nM. For the same compound, the Ratio in series [4] (setting [9]) came out at 0.18.
For `C[C@H](Nc1nc(C(=O)N2CC(NC(=O)C3COC3)C2)c2sccc2n1)c1cncc(F)c1` [Example Z607, (S)—N-(1-(2-((1-(5-Fluoropyridin-3-yl)ethyl)amino)thieno[3,2-d]pyrimidine-4-carbonyl)azetidin-3-yl)oxetane-3-carboxamide] the same measures were over 500 nM, over 500 nM, 50 to 100 nM, 10 to 50 nM and 4.49.
In the case of `C[C@H](Nc1nc(C(=O)N2CC(NC(=O)C3CCCCC3)C2)c2sccc2n1)c1cncc(F)c1` [Example Z610, (S)—N-(1-(2-((1-(5-Fluoropyridin-3-yl)ethyl)amino)thieno[3,2-d]pyrimidine-4-carbonyl)azetidin-3-yl)cyclohexanecarboxamide], the IC50 in series [1] is over 500 nM; in series [2] it was 10 to 50 nM; in series [3] (cAMP), under 10 nM; in series [4] (cAMP), under 10 nM. Besides, in series [4] (setting [9]), the Ratio was determined as 0.24.
Turning to `C[C@H](Nc1nc(C(=O)N2CC(C)(NC(=O)C3CC3)C2)c2sccc2n1)c1cncc(F)c1` [Example Z621, (S)—N-(1-(2-((1-(5-Fluoropyridin-3-yl)ethyl)amino)thieno[3,2-d]pyrimidine-4-carbonyl)-3-methylazetidin-3-yl)cyclopropanecarboxamide], the IC50 in series [1] is over 500 nM; in series [2], under 10 nM; in series [3] (cAMP) it was 50 to 100 nM; in series [4] (cAMP), 10 to 50 nM. Moreover, the Ratio in series [4] (setting [9]) is 1.86.
On to `C[C@H](Nc1nc(C(=O)N2CC(NC(=O)C3(C)CCC3)C2)c2sccc2n1)c1cncc(F)c1` [Example Z627, (S)—N-(1-(2-((1-(5-Fluoropyridin-3-yl)ethyl)amino)thieno[3,2-d]pyrimidine-4-carbonyl)azetidin-3-yl)-1-methylcyclobutane-1-carboxamide], for which the IC50 in series [1] was over 500 nM; in series [2], 100 to 500 nM; in series [3] (cAMP) it was under 10 nM; in series [4] (cAMP) it was 10 to 50 nM. In series [4] (setting [9]), the Ratio is 0.15 and 0.25.
On to `Cc1cc2nc(N[C@@H](C)c3cncc(F)c3)nc(C(=O)N3CC(NC(=O)[C@H]4CCOC4)C3)c2s1` [Example Z599, (S)—N-(1-(2-(((S)-1-(5-Fluoropyridin-3-yl)ethyl)amino)-6-methylthieno[3,2-d]pyrimidine-4-carbonyl)azetidin-3-yl)tetrahydrofuran-3-carboxamide], for which the IC50 in series [1] is over 500 nM; in series [2] it was 100 to 500 nM; in series [3] (cAMP), 10 to 50 nM; in series [4] (cAMP) it was 10 to 50 nM. The Ratio in series [4] (setting [9]) is 1.22.
Take `C[C@H](Nc1nc(C(=O)N2CC(NC(=O)c3cccc(F)c3)C2)c2sccc2n1)c1cncc(F)c1` [Example Z613, (S)-3-Fluoro-N-(1-(2-((1-(5-fluoropyridin-3-yl)ethyl)amino)thieno[3,2-d]pyrimidine-4-carbonyl)azetidin-3-yl)benzamide]: the IC50 in series [1] was over 500 nM; in series [2], 100 to 500 nM; in series [3] (cAMP) it was under 10 nM; in series [4] (cAMP), under 10 nM. For the same compound, the Ratio in series [4] (setting [9]) was 2.55.
`C[C@H](Nc1nc(C(=O)N2CC(NC(=O)C34CC5CC(CC(C5)C3)C4)C2)c2sccc2n1)c1cncc(F)c1` [Example Z631, (3S,5S,7S)—N-(1-(2-(((S)-1-(5-Fluoropyridin-3-yl)ethyl)amino)thieno[3,2-d]pyrimidine-4-carbonyl)azetidin-3-yl)adamantane-1-carboxamide]: the IC50 in series [1] is over 500 nM; in series [2], 10 to 50 nM; in series [3] (cAMP), under 10 nM; in series [4] (cAMP), 10 to 50 nM. Further, in series [4] (setting [9]), the Ratio came out at 0.09.
In the case of `C[C@H](Nc1nc(C(=O)N2CC(NC(=O)c3cccnc3)C2)c2sccc2n1)c1cncc(F)c1` [Example Z620, (S)—N-(1-(2-((1-(5-Fluoropyridin-3-yl)ethyl)amino)thieno[3,2d]pyrimidine-4-carbonyl)azetidin-3-yl)nicotinamide], the IC50 in series [1] is over 500 nM; in series [2], over 500 nM; in series [3] (cAMP), 50 to 100 nM; in series [4] (cAMP), 10 to 50 nM. Further, in series [4] (setting [9]), the Ratio amounted to 3.94.
For the compound `N#Cc1cncc(CNc2nc(C(=O)N3CCCC3)c3sccc3n2)c1` [Example Z141, 5-(((4-(Pyrrolidine-1-carbonyl)thieno[3,2-d]pyrimidin-2-yl)amino)methyl)nicotinonitrile], the IC50 in series [5] was over 500 nM; in series [3], over 500 nM; in series [6] it was over 500 nM; in series [4], 10 to 50 nM. Moreover, the Ratio in series [4] (setting [10]) was determined as 35.53. The hepatocyte CLint in series [7] turned out to be 38.7 µL/min/1e6 cells; in series [8] it was 102 µL/min/1e6 cells.
On to `C[C@H](Nc1nc(C(=O)N2CC[C@H](O)C2)c2sccc2n1)c1cccc(F)c1` [Example Z129, (2-(((S)-1-(3-Fluorophenyl)ethyl)amino)thieno[3,2-d]pyrimidin-4-yl)((S)-3-hydroxypyrrolidin-1-yl)methanone], for which the IC50 in series [5] is over 500 nM; in series [3], 100 to 500 nM; in series [6] it was 50 to 100 nM; in series [4] it was 10 to 50 nM. In addition, the Ratio in series [4] (setting [10]) was 22.27. Also, the hepatocyte CLint in series [7] stood at 9.59 µL/min/1e6 cells; in series [8], 43 µL/min/1e6 cells.
For `C[C@H](Nc1nc(C(=O)N2CC[C@H](O)C2)c2sccc2n1)c1cncc(F)c1` [Example Z165, (2-(((S)-1-(5-Fluoropyridin-3-yl)ethyl)amino)thieno[3,2-d]pyrimidin-4-yl)((S)-3-hydroxypyrrolidin-1-yl)methanone], the IC50 in series [5] was over 500 nM; in series [3], over 500 nM; in series [6], over 500 nM; in series [4], under 10 nM. Besides, the Ratio in series [4] (setting [10]) was 73.68. Also, the values for the hepatocyte CLint in series [7] and in series [8] were 5.66 µL/min/1e6 cells and 14.8 µL/min/1e6 cells, respectively.
